Results reported in patent US10351586B2, “Cytidine derivative dimers and applications thereof” (CHANGZHOU FANGYUAN PHARMACEUTICAL CO., LTD, priority 2014, dated 2019).
Marks after values point to notes of the source that are not given here.

Experiments:
[1] = system: HCT-116 human colon cancer xenografts; assay: Tumor growth inhibition of HCT-116 human colon cancer xenografts in nude mice; assay type: in vivo, Balb/c nude mice; details: for Relative tumor proliferation rate (T/C %) / Relative tumor volume (RTV) / Tumor growth inhibition rate (TGI %) / Tumor volume of HCT-116 human colon cancer xenografts: single IP injection (QD×1), D1 and D2 400 mg/kg, D3 350 mg/kg, D4 300 mg/kg; for Tumor volume of HCT-116 human colon cancer xenografts: Mean±SEM
Procedure: 2. Preparation of the test substance was performed by dissolving the test substance using the following solvents:
3. Animal experiments were performed. […] Animals were numbered using their tail number.
4.1 Tumor cells were human HCT-116 colon cancer cells purchased from the Institute of Cell Biology, Chinese Academy of Sciences (Beijing, China). F-12 medium (containing 10% FBS) was used to culture cells in a carbon dioxide incubator at about 37° C., saturated humidity, under 5% CO2 and 95% air. Before inoculation, cells in logarithmic growth phase were collected. After digested by 0.25% trypsin, the cells were washed with PBS once. The cells were resuspended with serum-free medium and counted. Serum-free medium were used for cell resuspension, until the cell concentration was adjusted to about 3×10^7 cell/mL.
4.2 Animal inoculation and grouping were performed.
The diameters (D) of the tumor nodules were measured three times a week with a circle sizer ruler. In addition, the following formula was applied to calculate the volume of the tumor nodules (V): V=[…](D/2)^3 generally for a spherical shape. Evaluation indexes of antitumor activity were tumor growth inhibition rate TGI (%) and relative tumor proliferation rate T/C (%).
The calculation formula of TGI was: TGI (%)=(Vcontrol−VTreatment)/Vcontrol)×100%. The relative tumor volume (RTV) was calculated by: RTV=Vt/V0, where V0 is the tumor volume at the time of group administration, and Vt is the tumor volume at the time of measurement.
The mice were weighed 3 times every week.
4.5 Data and statistical analysis were provided.

[2] = Body weight / toxicity of a single intraperitoneal injection in HCT-116 colon tumor-bearing nude mice; details: D3 350 mg/kg, D4 300 mg/kg; for Average rate of weight change of the animals / Average weight of the animals: single IP injection (QD×1), D1 and D2 400 mg/kg; for Average weight of the animals: Mean±SEM
Procedure: Corresponding test substance was weighed and put into a 5 mL glass tube. The test substance was dissolved in ethanol under the stirring by a 5 mm magnetic stirrer. After a complete dissolution, Cremophor EL was added with continuous stirring. Immediately prior to the user of the test substance, the labeled amount of physiological saline was added and stirred.
Animal experiments were performed. The animals were female Balb/c nude mice at specific pathogen free (SPF) level and were supplied from Shanghai Sippr/BK Lab Animal Ltd. (Shanghai, China). […] These animals were at the age of about 7 weeks to about 9 weeks at the beginning of the experiments and had the weight of about 18 grams to about 22 grams at the beginning of the experiment. The animals had acclimatization duration of about 5 days to about 7 days. Animals were numbered using their tail number. The animal room was maintained at about 23±2° C., 40%-70% humidity, with alternating light and dark every 12 hours.
4.2 Animal inoculation and grouping were performed. Under aseptic conditions, each nude mice was injected with 0.1 mL cell suspension into the right hind leg subcutaneously (3×10^6 cell/mouse). When the size of the tumor grew to have a volume of about 60-150 mm^3, nude mice with a similar tumor size and a desirable shape (e.g., with substantially same shape such as a substantially spherical shape, without having irregular shapes or multiple tumors grouped together) were selected and grouped. In the experiment, there were six mice in each group.
The mice in control group were injected with a mixed solution including ethanol, Cremophor EL and normal saline at a ratio of 5:5:90.
4.4 Clinical symptoms were provided. All clinical symptoms of each animal were recorded at the beginning of the experiments and during the experiments. The observation was performed at the same time every day.
After administration of the test substance, when the weight reduction was >20%, when the animal was dying, or when the tumor volume exceeds about 2800 mm^3, the animal were euthanized by applying CO2. The tumor was separated and weighed, an autopsy was performed, and visual inspection was conducted and recorded on whether there were pathological changes in the organs.

[3] = D1 400 mg/kg Day 7, D2 400 mg/kg Day 9, D3 350 mg/kg Day 11, D4 300 mg/kg Day 11, single IP

Structure (SMILES): CCCCOC(=O)Nc1ccn([C@H]2O[C@@H](COC(=O)CCC(=O)OC[C@H]3O[C@@H](n4ccc(NC(=O)OCCCC)nc4=O)C(F)(F)[C@@H]3O)[C@H](O)C2(F)F)c(=O)n1 (stereo in doubt) [Compound D2, 1,5-di-[4-N-(n-butoxycarbonyl)-2′-deoxy-2′,2′-difluoro-cytidine]glutarate]
- Relative tumor proliferation rate, minimum [1, 3]: 14.41%
- Tumor inhibition rate, maximum [1, 3]: 94.79%
- Relative tumor proliferation rate (T/C %) ([1]; Day 0): 0.00%
- Relative tumor volume (RTV) ([1]; Day 0): 1.00
- Tumor growth inhibition rate (TGI %) ([1]; Day 0): 0.00%
- Tumor volume of HCT-116 human colon cancer xenografts ([1]; Day 0): 53.09 ± 9.33** mm^3
- Relative tumor proliferation rate (T/C %) ([1]; Day 1): 50.15%
- Relative tumor volume (RTV) ([1]; Day 1): 0.89 ± 0.10
- Tumor growth inhibition rate (TGI %) ([1]; Day 1): 71.87%
- Tumor volume of HCT-116 human colon cancer xenografts ([1]; Day 1): 50.78 ± 14.16** mm^3
- Relative tumor proliferation rate (T/C %) ([1]; Day 2): 40.78%
- Relative tumor volume (RTV) ([1]; Day 2): 0.95 ± 0.15
- Tumor growth inhibition rate (TGI %) ([1]; Day 2): 74.81%
- Tumor volume of HCT-116 human colon cancer xenografts ([1]; Day 2): 55.89 ± 18.82** mm^3
- Relative tumor proliferation rate (T/C %) ([1]; Day 4): 25.19%
- Relative tumor volume (RTV) ([1]; Day 4): 0.73 ± 0.19
- Tumor growth inhibition rate (TGI %) ([1]; Day 4): 84.53%
- Tumor volume of HCT-116 human colon cancer xenografts ([1]; Day 4): 45.96 ± 20.25** mm^3
- Relative tumor proliferation rate (T/C %) ([1]; Day 7): 16.63%
- Relative tumor volume (RTV) ([1]; Day 7): 0.52 ± 0.23
- Tumor growth inhibition rate (TGI %) ([1]; Day 7): 91.71%
- Tumor volume of HCT-116 human colon cancer xenografts ([1]; Day 7): 35.87 ± 21.79** mm^3
- Relative tumor proliferation rate (T/C %) ([1]; Day 9): 14.41%
- Relative tumor volume (RTV) ([1]; Day 9): 0.46 ± 0.17
- Tumor growth inhibition rate (TGI %) ([1]; Day 9): 94.79%
- Tumor volume of HCT-116 human colon cancer xenografts ([1]; Day 9): 30.75 ± 16.74** mm^3
- Relative tumor proliferation rate (T/C %) ([1]; Day 11): 16.77%
- Relative tumor volume (RTV) ([1]; Day 11): 0.87 ± 0.35
- Tumor growth inhibition rate (TGI %) ([1]; Day 11): 94.13%
- Tumor volume of HCT-116 human colon cancer xenografts ([1]; Day 11): 57.29 ± 33.0** mm^3
- Relative tumor proliferation rate (T/C %) ([1]; Day 14): 18.33%
- Relative tumor volume (RTV) ([1]; Day 14): 1.80 ± 0.69
- Tumor growth inhibition rate (TGI %) ([1]; Day 14): 91.88%
- Tumor volume of HCT-116 human colon cancer xenografts ([1]; Day 14): 116.87 ± 66.85** mm^3
- Relative tumor proliferation rate (T/C %) ([1]; Day 16): 21.64%
- Relative tumor volume (RTV) ([1]; Day 16): 2.66 ± 0.88
- Tumor growth inhibition rate (TGI %) ([1]; Day 16): 90.63%
- Tumor volume of HCT-116 human colon cancer xenografts ([1]; Day 16): 169.73 ± 88.15** mm^3
- Relative tumor proliferation rate (T/C %) ([1]; Day 18): 21.99%
- Relative tumor volume (RTV) ([1]; Day 18): 4.20 ± 1.02
- Tumor growth inhibition rate (TGI %) ([1]; Day 18): 86.88%
- Tumor volume of HCT-116 human colon cancer xenografts ([1]; Day 18): 262.10 ± 111.14** mm^3
- Relative tumor proliferation rate (T/C %) ([1]; Day 21): 34.57%
- Relative tumor volume (RTV) ([1]; Day 21): 8.09 ± 1.52
- Tumor growth inhibition rate (TGI %) ([1]; Day 21): 79.99%
- Tumor volume of HCT-116 human colon cancer xenografts ([1]; Day 21): 489.13 ± 174.91 mm^3
- Relative tumor proliferation rate (T/C %) ([1]; Day 23): 42.87%
- Relative tumor volume (RTV) ([1]; Day 23): 8.48 ± 1.37
- Tumor growth inhibition rate (TGI %) ([1]; Day 23): 78.74%
- Tumor volume of HCT-116 human colon cancer xenografts ([1]; Day 23): 501.98 ± 170.25 mm^3
- Relative tumor proliferation rate (T/C %) ([1]; Day 25): 44.51%
- Relative tumor volume (RTV) ([1]; Day 25): 9.62 ± 1.48
- Tumor growth inhibition rate (TGI %) ([1]; Day 25): 77.96%
- Tumor volume of HCT-116 human colon cancer xenografts ([1]; Day 25): 569.05 ± 189.18 mm^3
- Relative tumor proliferation rate (T/C %) ([1]; Day 28): 56.94%
- Relative tumor volume (RTV) ([1]; Day 28): 12.03 ± 1.50
- Tumor growth inhibition rate (TGI %) ([1]; Day 28): 74.35%
- Tumor volume of HCT-116 human colon cancer xenografts ([1]; Day 28): 689.78 ± 203.52 mm^3
- Relative tumor proliferation rate (T/C %) ([1]; Day 30): 63.87%
- Relative tumor volume (RTV) ([1]; Day 30): 15.85 ± 1.92
- Tumor growth inhibition rate (TGI %) ([1]; Day 30): 67.91%
- Tumor volume of HCT-116 human colon cancer xenografts ([1]; Day 30): 900.52 ± 250.44 mm^3
- Inhibition of growth of HCT-116 human colon cancer xenografts (in words) ([1]; single IP injection, 300-400 mg/kg): higher tumor inhibition rates
- Average rate of weight change of the animals ([2]; Day 0): 0.00%
- Average weight of the animals ([2]; Day 0): 19.87 ± 0.25 g
- Average rate of weight change of the animals ([2]; Day 1): −0.08 ± 0.74%
- Average weight of the animals ([2]; Day 1): 19.85 ± 0.28 g
- Average rate of weight change of the animals ([2]; Day 2): −8.54 ± 1.31 %
- Average weight of the animals ([2]; Day 2): 18.17 ± 0.31 g
- Average rate of weight change of the animals ([2]; Day 4): −10.63 ± 2.13 %
- Average weight of the animals ([2]; Day 4): 17.75 ± 0.44 g
- Average rate of weight change of the animals ([2]; Day 7): −6.98 ± 1.43%
- Average weight of the animals ([2]; Day 7): 18.48 ± 0.40 g
- Average rate of weight change of the animals ([2]; Day 9): 0.21 ± 1.42%
- Average weight of the animals ([2]; Day 9): 19.92 ± 0.45 g
- Average rate of weight change of the animals ([2]; Day 11): 2.72 ± 1.85%
- Average weight of the animals ([2]; Day 11): 20.42 ± 0.53 g
- Average rate of weight change of the animals ([2]; Day 14): 4.87 ± 2.08 %
- Average weight of the animals ([2]; Day 14): 20.85 ± 0.60 g
- Average rate of weight change of the animals ([2]; Day 16): 6.32 ± 1.65 %
- Average weight of the animals ([2]; Day 16): 21.13 ± 0.51 g
- Average rate of weight change of the animals ([2]; Day 18): 8.83 ± 1.43 %
- Average weight of the animals ([2]; Day 18): 21.63 ± 0.51 g
- Average rate of weight change of the animals ([2]; Day 21): 4.22 ± 1.23 %
- Average weight of the animals ([2]; Day 21): 20.72 ± 0.46 g
- Average rate of weight change of the animals ([2]; Day 23): 3.66 ± 1.05 %
- Average weight of the animals ([2]; Day 23): 20.60 ± 0.40 g
- Average rate of weight change of the animals ([2]; Day 25): 5.07 ± 1.44%
- Average weight of the animals ([2]; Day 25): 20.88 ± 0.48 g
- Average rate of weight change of the animals ([2]; Day 28): 1.57 ± 1.50%
- Average weight of the animals ([2]; Day 28): 20.18 ± 0.44 g
- Average rate of weight change of the animals ([2]; Day 30): 2.28 ± 1.75%
- Average weight of the animals ([2]; Day 30): 20.33 ± 0.55 g
- Toxicity in tumor-bearing mice (in words) ([2]; single IP injection, D2 400 mg/kg, judged from body weight versus control): no toxicity
